{"source": "patent US4323567A", "about": "“Arylmalonamido-1-oxadethiacephalosporins” (priority 1976, dated 1982)", "experiment_in_all_cases": "Minimal inhibitory concentration, nutrient agar plate", "key": {"Escherichia coli H": {"tested_on": "Escherichia coli H", "type": "cell-based", "conditions": "pH 7, read-out: Minimal inhibitory concentration"}, "E. coli JC-2": {"tested_on": "E. coli JC-2", "type": "cell-based", "conditions": "Escherichia coli, JC2, pH 7, read-out: Minimal inhibitory concentration"}, "E. coli 377": {"tested_on": "E. coli 377", "type": "cell-based, Escherichia coli", "conditions": "Escherichia coli, 377, pH 7, read-out: Minimal inhibitory concentration"}, "E. coli 73": {"tested_on": "E. coli 73", "type": "cell-based, Escherichia coli", "conditions": "Escherichia coli, 73, pH 7, read-out: Minimal inhibitory concentration"}, "[1]": {"tested_on": "Serratia marsescens 13880", "type": "cell-based", "conditions": "Serratia, 13880, pH 7, read-out: Minimal inhibitory concentration"}, "Klebsiella pneumoniae": {"tested_on": "Klebsiella pneumoniae", "type": "cell-based", "conditions": "pH 7, read-out: Minimal inhibitory concentration"}, "Klebsiella sp. 363": {"tested_on": "Klebsiella sp. 363", "type": "cell-based", "conditions": "SP.363, pH 7, read-out: Minimal inhibitory concentration"}, "Enterobacter cloacae 233": {"tested_on": "Enterobacter cloacae 233", "type": "cell-based", "conditions": "Enterobacter cloacae, 233, pH 7, read-out: Minimal inhibitory concentration"}, "Proteus mirabilis PR-4": {"tested_on": "Proteus mirabilis PR-4", "type": "cell-based", "conditions": "PR4, pH 7, read-out: Minimal inhibitory concentration"}, "P. morganii No. 9": {"tested_on": "P. morganii No. 9", "type": "cell-based, Proteus morganii", "conditions": "Morganella morganii, NO.9, pH 7, read-out: Minimal inhibitory concentration"}, "P. vulgaris No. 3": {"tested_on": "P. vulgaris No. 3", "type": "cell-based", "conditions": "Proteus vulgaris, NO.3, pH 7, read-out: Minimal inhibitory concentration"}, "P. vulgaris CN-329": {"tested_on": "P. vulgaris CN-329", "type": "cell-based", "conditions": "Proteus vulgaris, CN329, pH 7, read-out: Minimal inhibitory concentration"}, "[2]": {"tested_on": "Pseudomonas aeruginosa Denken", "type": "cell-based", "conditions": "pH 7, read-out: Minimal inhibitory concentration"}, "Ps. aeruginosa 25619": {"tested_on": "Ps. aeruginosa 25619", "type": "cell-based, Pseudomonas aeruginosa", "conditions": "Pseudomonas aeruginosa, 25619, pH 7, read-out: Minimal inhibitory concentration"}, "Ps. aeruginosa 24": {"tested_on": "Ps. aeruginosa 24", "type": "cell-based, Pseudomonas aeruginosa", "conditions": "Pseudomonas aeruginosa, 24, pH 7, read-out: Minimal inhibitory concentration"}}, "data": [{"smiles": "CO[C@@]1(NC(=O)C(C(=O)O)c2ccc(OC(=O)NC(N)=O)cc2)C(=O)N2C(C(=O)O)=C(CSc3nnnn3C)CO[C@@H]21", "note": "(stereo partly drawn) [III-27, 7β-(α-p-ureidocarbonyloxyphenyl-α-carboxyacetamido)-7α-methoxy-3-(1-methyltetrazol-5-yl)thiomethyl--oxadethia-3-cephem-4-carboxylic acid]", "values": [{"measurement": "MIC", "setting": "Escherichia coli H", "result": 0.05, "unit": "µg/mL"}, {"measurement": "MIC", "setting": "E. coli JC-2", "result": 0.2, "unit": "µg/mL"}, {"measurement": "MIC", "setting": "E. coli 377", "result": 0.78, "unit": "µg/mL"}, {"measurement": "MIC", "setting": "E. coli 73", "result": 0.78, "unit": "µg/mL"}, {"measurement": "MIC", "setting": "[1]", "result": 3.13, "unit": "µg/mL"}, {"measurement": "MIC", "setting": "Klebsiella pneumoniae", "result": 0.39, "unit": "µg/mL"}, {"measurement": "MIC", "setting": "Klebsiella sp. 363", "result": 0.2, "unit": "µg/mL"}, {"measurement": "MIC", "setting": "Enterobacter cloacae 233", "result": 0.78, "unit": "µg/mL"}, {"measurement": "MIC", "setting": "Proteus mirabilis PR-4", "result": 0.2, "unit": "µg/mL"}, {"measurement": "MIC", "setting": "P. morganii No. 9", "result": 0.2, "unit": "µg/mL"}, {"measurement": "MIC", "setting": "P. vulgaris No. 3", "result": 0.39, "unit": "µg/mL"}, {"measurement": "MIC", "setting": "P. vulgaris CN-329", "result": 0.2, "unit": "µg/mL"}, {"measurement": "MIC", "setting": "[2]", "result": "> 100", "unit": "µg/mL"}, {"measurement": "MIC", "setting": "Ps. aeruginosa 25619", "result": 12.5, "unit": "µg/mL"}, {"measurement": "MIC", "setting": "Ps. aeruginosa 24", "result": 50, "unit": "µg/mL"}]}]}
